The text below walks through data of patent publication US20210161997A1, “TREATING DISEASES VIA TARGETED MODULATION OF GENE SIGNALING NETWORKS” (Camp4 Therapeutics Corporation, priority 2018, published 2021).

What all share (assay type): cell-based
One assay deals with UGT1A1. As to the kind of experiment: RNA-seq of UGT1A1 expression in compound-treated primary human hepatocytes. The method, boiled down:
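Cryopreserved primary human hepatocytes from three donors were plated in 24-well format, then treated with compound diluted from 1000× stocks in serum-free maintenance medium for about 16–18 h. Poly(A) RNA-seq log2 fold change was computed against vehicle/pan-experiment controls. Significance required FPKM ≥1, log2FC ≥0.5 and q ≤0.05.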

Another assay relates to SLC37A4. Put plainly: RNA-seq of SLC37A4 expression in compound-treated primary human hepatocytes. The method, then: (§1) Human hepatocytes were obtained from two donors from Massachusetts General Hospital, namely MGH54 and MGH63, and one donor from Lonza, namely HUM4111B. Cryopreserved hepatocytes were cultured in plating media for 16 hours, transferred to maintenance media for 4 hours. Cultured on serum-free media for 2 hours, then a compound was added. The hepatocytes were maintained on the serum-free media for 16 hours prior to gene expression analysis. Primary human hepatocytes were stored in the vapor phase of a liquid nitrogen freezer (about −130° C.).
(§2) Human hepatocytes cultured as described above were plated in 24-well format, adding 375,000 cells per well in a volume of 500 ul plating medium. Four hours before treatment, cells were washed with PBS and the medium was changed to either: fresh maintenance medium (complete) or modified maintenance medium.
(§3) Compound stocks were prepared at 1000× final concentration and added in a 2-step dilution to the medium to reduce risk of a compound precipitating out of solution when added to the cells, and to ensure reasonable pipetting volumes. One at a time, each compound was first diluted 10-fold in warm (about 37° C.) modified maintenance medium (initial dilution=ID), mixed by vortexing, and the ID was diluted 100-fold into the cell culture (e.g. 5.1 ul into 1 well of a 24-well plate containing 0.5 mL medium). The plate was mixed by carefully swirling and after all wells were treated and returned to the incubator overnight. If desired, separate plates/wells were treated with vehicle-only controls and/or positive controls. If using multi-well plates, controls were included on each plate. After about 18 hours, cells were harvested for further analysis, e.g., ChIP-seq, RNA-seq, ATAC-seq, etc.
(§4) This protocol is a modified version of the following protocols: MagMAX mirVana Total RNA Isolation Kit User Guide (Applied Biosystems #MAN0011131 Rev B.0), NEBNext Poly(A) mRNA Magnetic Isolation Module (E7490), and NEBNext Ultra Directional RNA Library Prep Kit for Illumina (E7420) (New England Biosystems #E74901).
(§5) The MagMAX mirVana kit instructions (the section titled “Isolate RNA from cells” on pages 14-17) were used for isolation of total RNA from cells in culture. Two hundred μl of Lysis Binding Mix was used per well of the multiwell plate containing adherent cells (usually a 24-well plate).
(§6) For mRNA isolation and library prep, the NEBNext Poly(A) mRNA Magnetic Isolation Module and Directional Prep kit was used. RNA isolated from cells above was quantified, and prepared in […] of each sample in 50 μl of nuclease-free water. This protocol may be run in microfuge tubes or in a 96-well plate.
All pass filter reads from each sample were mapped against the human genome (assembly GRCh38/GCA_000001405.15 “no alt” analysis set merged with hs38d1/GCA_000786075.2) using two pass mapping via STAR version 2.5.3a (alignment parameters alignIntronMin=20; alignIntronMax=1000000; outFilterMismatchNmax=999; outFilterMismatchNoverLmax=0.05; outFilterType=BySJout; outFilterMultimapNmax=20; alignSJoverhangMin=8; alignSJDBoverhangMin=1; alignMatesGapMax=1000000) (Dobin et al., Bioinformatics (2012) 29(1):15-21). Genomic alignments were converted to transcriptome alignments based on reference transcript annotations from the Human GENCODE Gene Set release 24 (Harrow et al., Genome Res. (2012) 22(9): 1760-1774). Using unique and multimapped transcriptomic alignments, gene-level abundance estimates were computed using RSEM version 1.3.0 (Li and Dewey, BMC Bioinformatics (2011) 12:323) in a strand-aware manner, and including confidence interval sampling calculations, to arrive at posterior mean estimates (PME) of abundances (counts and normalized FPKM—fragments per kilobase of exon per million mapped fragments) from the underlying Bayesian model. Standard QC were applied (read integrity, mapping statistics, library complexity, fragment bias) to remove unsatisfactory samples.

The next assay concerns CPOX. Put plainly: RNA-seq of CPOX expression in compound-treated primary human hepatocytes. To be noted: RNA-seq, primary human hepatocytes; significance FPKM ≥0.5, log 2(fold change) ≥0.3, q-value ≤0.05. As for the experimental part:
as §1, §2, §3, §4, §5, §6
Standard QC were applied (read integrity, mapping statistics, library complexity, fragment bias) to remove unsatisfactory samples. […] Log 2 fold change and significance values were computed using PME count data (with replicates explicitly modeled versus pan-experiment controls), median ratio normalized, using maximum likelihood estimation rather than maximum a posteriori, and disabling the use of Cook's distance cutoff when determining acceptable adjusted p-values. […] RNA-seq signals were also normalized by read depth and visualized using the UCSC browser.
To identify small molecules that modulate target gene expression, primary human hepatocytes were prepared as a monoculture, and at least one small molecule compound was applied to the cells.
RNA-seq was performed to determine the effects of the compounds on the expression of the target genes in hepatocytes. Fold change was calculated by dividing the level of expression in the cell system that had been perturbed by the level of expression in an unperturbed system. Changes in expression having a p-value ≤0.05 were considered significant.
Significance was defined as an FPKM ≥0.5 a log 2(fold change) ≥0.3, and a q-value of ≤0.05.

The structures appear in SMILES notation.

Consider `S=C(NCc1ccc2c(c1)OCO2)N1CCN(c2ncnc3c2oc2ccccc23)CC1` [Amuvatinib], for which, in the assay on UGT1A1, the “UGT1A1 Fold Change (Log2)” value turned out to be 0.61 Log2. Besides, the “SLC37A4 Fold Change (Log2)” value in the assay with SLC37A4 worked out at 0.97 Log2.
For `O=C1CCC(N2C(=O)c3ccccc3C2=O)C(=O)N1` (stereo not shown) [Thalidomide], the “CPOX Fold change (Log2)” value with CPOX amounted to 0.3 Log2. In addition, the “SLC37A4 Fold Change (Log2)” value in the assay with SLC37A4 stood at 0.64 Log2.
